Measured values taken from PubChem BioAssay (NCI).
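Protocol summary: plate cells (96-well), add compound at 5 concentrations, incubate 48 h, interpolate endpoints linearly. TGI: total growth inhibition.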

Experiments:
Experiment in all cases: DTP human tumour cell line panel, 48 h
SK-MEL-28 melanoma = tested on: SK-MEL-28 melanoma
ACHN renal = tested on: ACHN renal
HOP-92 NSCLC = tested on: HOP-92 NSCLC
HCT-15 colon = tested on: HCT-15 colon
MDA-MB-435 = tested on: MDA-MB-435
OVCAR-3 ovarian = tested on: OVCAR-3 ovarian
KM12 colon = tested on: KM12 colon
UO-31 renal = tested on: UO-31 renal
TK-10 renal = tested on: TK-10 renal
BT-549 breast = tested on: BT-549 breast
U251 CNS = tested on: U251 CNS
SK-MEL-5 melanoma = tested on: SK-MEL-5 melanoma
MALME-3M melanoma = tested on: MALME-3M melanoma
SF-295 CNS = tested on: SF-295 CNS
RPMI-8226 leukemia = tested on: RPMI-8226 leukemia
SK-OV-3 ovarian = tested on: SK-OV-3 ovarian
OVCAR-4 ovarian = tested on: OVCAR-4 ovarian
MCF7 breast = tested on: MCF7 breast
HOP-62 NSCLC = tested on: HOP-62 NSCLC
NCI-H226 lung = tested on: NCI-H226 lung
HS 578T breast = tested on: HS 578T breast
SNB-75 CNS = tested on: SNB-75 CNS
HCT-116 colon = tested on: HCT-116 colon
T-47D breast = tested on: T-47D breast
MDA-N = tested on: MDA-N
HCC-2998 colon = tested on: HCC-2998 colon
UACC-257 melanoma = tested on: UACC-257 melanoma
K-562 leukemia = tested on: K-562 leukemia
NCI-H522 lung = tested on: NCI-H522 lung
NCI-H460 lung = tested on: NCI-H460 lung
CAKI-1 renal = tested on: CAKI-1 renal
COLO 205 colon = tested on: COLO 205 colon
786-0 renal = tested on: 786-0 renal
CCRF-CEM leukemia = tested on: CCRF-CEM leukemia
SW-620 colon = tested on: SW-620 colon
OVCAR-8 ovarian = tested on: OVCAR-8 ovarian
OVCAR-5 ovarian = tested on: OVCAR-5 ovarian
SNB-19 CNS = tested on: SNB-19 CNS
A498 renal = tested on: A498 renal
SK-MEL-2 melanoma = tested on: SK-MEL-2 melanoma
SN12C renal = tested on: SN12C renal
PC-3 prostate = tested on: PC-3 prostate
M14 melanoma = tested on: M14 melanoma
DU-145 prostate = tested on: DU-145 prostate
A549 NSCLC = tested on: A549 NSCLC
NCI-H23 lung = tested on: NCI-H23 lung
HT29 colon = tested on: HT29 colon
EKVX NSCLC = tested on: EKVX NSCLC
IGROV1 ovarian = tested on: IGROV1 ovarian
LOX IMVI melanoma = tested on: LOX IMVI melanoma
NCI/ADR-RES ovarian = tested on: NCI/ADR-RES ovarian
MDA-MB-231 breast = tested on: MDA-MB-231 breast
SF-268 CNS = tested on: SF-268 CNS
UACC-62 melanoma = tested on: UACC-62 melanoma
SF-539 CNS = tested on: SF-539 CNS
RXF 393 renal = tested on: RXF 393 renal
SR leukemia = tested on: SR leukemia
HL-60(TB) leukemia = tested on: HL-60(TB) leukemia
MOLT-4 leukemia = tested on: MOLT-4 leukemia

C=C(NC(=O)C(=C)NC(=O)c1csc(C2=NC3c4csc(n4)C4NC(=O)c5csc(n5)C(C(C)(O)C(C)O)NC(=O)C5CSC(=N5)/C(=C/C)NC(=O)C(C(C)O)NC(=O)c5csc(n5)C3(CC2)NC(=O)C(C)NC(=O)C(=C)NC(=O)C(=C)NC(=O)C(C(C)C)NC2C=Cc3c(C(C)O)cc(nc3C2O)C(=O)OC4C)n1)C(N)=O (stereo unspecified)
TGI (SK-MEL-28 melanoma): > 62.1 µM
TGI (ACHN renal): > 61.2 µM
TGI (HOP-92 NSCLC): 40.1 µM
TGI (HCT-15 colon): > 63.4 µM
TGI (MDA-MB-435): > 52.8 µM
TGI (OVCAR-3 ovarian): > 100 µM
TGI (KM12 colon): > 100 µM
TGI (UO-31 renal): > 100 µM
TGI (TK-10 renal): > 94.8 µM
TGI (BT-549 breast): 7.88 µM
TGI (U251 CNS): > 40.2 µM
TGI (SK-MEL-5 melanoma): > 100 µM
TGI (MALME-3M melanoma): 0.786 µM
TGI (SF-295 CNS): > 100 µM
TGI (RPMI-8226 leukemia): 13.6 µM
TGI (SK-OV-3 ovarian): > 63.4 µM
TGI (OVCAR-4 ovarian): > 83.5 µM
TGI (MCF7 breast): > 26 µM
TGI (HOP-62 NSCLC): > 100 µM
TGI (NCI-H226 lung): 7.24 µM
TGI (HS 578T breast): > 100 µM
TGI (SNB-75 CNS): > 100 µM
TGI (HCT-116 colon): 2.64 µM
TGI (T-47D breast): 25 µM
TGI (MDA-N): > 100 µM
TGI (HCC-2998 colon): > 58.1 µM
TGI (UACC-257 melanoma): 18.7 µM
TGI (K-562 leukemia): > 48.3 µM
TGI (NCI-H522 lung): 0.322 µM
TGI (NCI-H460 lung): 59.7 µM
TGI (CAKI-1 renal): > 87.2 µM
TGI (COLO 205 colon): > 100 µM
TGI (786-0 renal): 11.3 µM
TGI (CCRF-CEM leukemia): 6.8 µM
TGI (SW-620 colon): > 100 µM
TGI (OVCAR-8 ovarian): 8.75 µM
TGI (OVCAR-5 ovarian): 28.2 µM
TGI (SNB-19 CNS): 65.4 µM
TGI (A498 renal): 16.5 µM
TGI (SK-MEL-2 melanoma): > 38.9 µM
TGI (SN12C renal): > 38 µM
TGI (PC-3 prostate): > 100 µM
TGI (M14 melanoma): > 28.5 µM
TGI (DU-145 prostate): > 72.4 µM
TGI (A549 NSCLC): > 48.5 µM
TGI (NCI-H23 lung): > 62.6 µM
TGI (HT29 colon): 16 µM
TGI (EKVX NSCLC): > 100 µM
TGI (IGROV1 ovarian): 58.9 µM
TGI (LOX IMVI melanoma): > 61.3 µM
TGI (NCI/ADR-RES ovarian): > 100 µM
TGI (MDA-MB-231 breast): > 100 µM
TGI (SF-268 CNS): > 100 µM
TGI (UACC-62 melanoma): 4.15 µM

CCOC(=O)C(NCc1ccccc1)(NC(=O)c1ccccc1)C(F)(F)F (stereo unspecified)
TGI (SK-MEL-28 melanoma): > 100 µM
TGI (ACHN renal): > 100 µM
TGI (HOP-92 NSCLC): > 100 µM
TGI (HCT-15 colon): > 100 µM
TGI (MDA-MB-435): > 100 µM
TGI (OVCAR-3 ovarian): > 100 µM
TGI (KM12 colon): > 100 µM
TGI (UO-31 renal): > 100 µM
TGI (TK-10 renal): > 100 µM
TGI (BT-549 breast): > 100 µM
TGI (U251 CNS): > 100 µM
TGI (SF-539 CNS): > 100 µM
TGI (SK-MEL-5 melanoma): > 100 µM
TGI (MALME-3M melanoma): > 100 µM
TGI (SF-295 CNS): > 100 µM
TGI (RPMI-8226 leukemia): > 100 µM
TGI (SK-OV-3 ovarian): > 100 µM
TGI (OVCAR-4 ovarian): > 100 µM
TGI (MCF7 breast): > 100 µM
TGI (HOP-62 NSCLC): > 100 µM
TGI (NCI-H226 lung): > 100 µM
TGI (HS 578T breast): > 100 µM
TGI (SNB-75 CNS): > 100 µM
TGI (HCT-116 colon): > 100 µM
TGI (T-47D breast): > 100 µM
TGI (MDA-N): > 100 µM
TGI (HCC-2998 colon): > 100 µM
TGI (RXF 393 renal): > 100 µM
TGI (UACC-257 melanoma): > 100 µM
TGI (K-562 leukemia): > 100 µM
TGI (NCI-H522 lung): > 100 µM
TGI (CAKI-1 renal): > 100 µM
TGI (COLO 205 colon): > 100 µM
TGI (786-0 renal): > 100 µM
TGI (CCRF-CEM leukemia): 89.9 µM
TGI (SW-620 colon): > 100 µM
TGI (OVCAR-8 ovarian): > 100 µM
TGI (OVCAR-5 ovarian): > 100 µM
TGI (SNB-19 CNS): > 100 µM
TGI (SR leukemia): > 100 µM
TGI (SK-MEL-2 melanoma): > 100 µM
TGI (SN12C renal): > 100 µM
TGI (PC-3 prostate): > 100 µM
TGI (M14 melanoma): > 100 µM
TGI (DU-145 prostate): > 100 µM
TGI (A549 NSCLC): > 100 µM
TGI (NCI-H23 lung): > 100 µM
TGI (HT29 colon): > 100 µM
TGI (EKVX NSCLC): > 100 µM
TGI (IGROV1 ovarian): > 100 µM
TGI (LOX IMVI melanoma): > 100 µM
TGI (HL-60(TB) leukemia): > 100 µM
TGI (NCI/ADR-RES ovarian): > 100 µM
TGI (MDA-MB-231 breast): 83.6 µM
TGI (MOLT-4 leukemia): > 100 µM
TGI (SF-268 CNS): > 100 µM
TGI (UACC-62 melanoma): > 100 µM
